Results on 1 compound are retold here after publication PMC4721062, “Oxadiazole-2-oxides may have other functional targets, in addition to SjTGR, through which they cause mortality in Schistosoma japonicum” (Parasites & Vectors, 2016).

For one series, the target named is T1, recombinant SjTGR (Schistosoma japonicum, UniProt B5THG7).
T1 sequence (B5THG7 1-596): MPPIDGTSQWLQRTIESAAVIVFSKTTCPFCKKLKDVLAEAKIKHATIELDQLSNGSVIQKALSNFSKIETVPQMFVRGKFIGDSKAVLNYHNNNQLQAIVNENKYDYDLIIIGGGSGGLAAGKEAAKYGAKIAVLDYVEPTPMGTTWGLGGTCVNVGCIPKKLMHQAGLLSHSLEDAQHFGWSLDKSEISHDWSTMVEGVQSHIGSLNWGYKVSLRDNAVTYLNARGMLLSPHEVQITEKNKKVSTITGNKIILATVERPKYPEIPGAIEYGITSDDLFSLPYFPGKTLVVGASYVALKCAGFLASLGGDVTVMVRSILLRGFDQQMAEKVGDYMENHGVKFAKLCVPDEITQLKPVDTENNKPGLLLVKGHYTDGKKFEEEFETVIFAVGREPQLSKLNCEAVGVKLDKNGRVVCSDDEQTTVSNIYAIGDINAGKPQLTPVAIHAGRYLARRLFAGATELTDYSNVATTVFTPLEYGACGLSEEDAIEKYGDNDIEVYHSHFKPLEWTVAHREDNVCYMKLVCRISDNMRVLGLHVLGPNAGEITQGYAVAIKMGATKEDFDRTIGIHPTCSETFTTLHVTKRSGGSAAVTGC
Description: Inhibition of TrxR activity of recombinant SjTGR (DTNB assay). The class given is biochemical. The settings on record: IC50 of SjTGR, 50 nM SjTGR, 1 mM NADPH, 15 min preincubation, DTNB reduction. The method in brief:
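SjTGR (50 nM) preincubated 15 min at room temperature with 1 mM NADPH and oxadiazole-2-oxides (2-20 μM). Reaction started with potassium phosphate pH 7.4, 10 mM EDTA, 100 μM NADPH, 3 mM DTNB; A412 increase followed over first 2 min, triplicates.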

Series [1] can be described thus: Cytotoxicity assay on Hela cells (MTT). The format is cell-based. The settings on record: human. The protocol: Cytotoxicity assays were performed using Hela cells. Cells in the exponential growth phase were collected by centrifugation and a concentration of 4–5 × 10^4/mL was created. 100 μL of the cell suspension was added to each well of a 96-well plate and cultured overnight at 37 °C in a humid atmosphere with 5 % CO2. Oxadiazole-2-oxides (at 10, 20, 40, 80 and 160 μM) were added. Each concentration was assayed in triplicate, and control wells (no cells and no drugs) were assayed at the same time. The “no cell” control wells only contained RPMI 1640 medium, MTT, DMSO, and oxadiazole-2-oxides. The “no drug” control wells contained the Hela cells, RPMI 1640 medium, MTT and DMSO. The cells were cultured for 48 h at 37 °C in a humid atmosphere with 5 % CO2. Then, 20 μL of 5 mg/mL MTT was added to each well and the culture conditions were maintained for 4 h. After this point, the medium was removed and 150 μL DMSO was added into each well to dissolve any crystallisation. The value of absorbance at 570 nm of each well was measured (at 570 nm) with a microplate reader to assess the toxic effect of the oxadiazole-2-oxides on the vertebrate cells.

For the next series, the system named is adult S. japonicum. Briefly: microbe, parasite or virus in culture. The class given is cell-based. The settings on record: adult worms. The procedure, abridged: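 Adult worm pairs recovered by portal perfusion from ICR mice 35 days after infection with 50 cercariae, cultured in RPMI 1640 (pH 7.5, 20 mM HEPES, 10% FBS) at 37 °C, 5% CO2. Oxadiazole-2-oxides at 10, 25, 50, 100 μM; motility and survival scored microscopically at 24, 48, 72 h, death being no movement over 2 min; three independent experiments averaged.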

The test system of series [2] is adult S. japonicum in mice. Description: Treatment of infected mice at adult worm stage. The class given is in vivo, Schistosoma japonicum (ICR mice). As for the experimental part: The abdominal skin of each mouse (ICR, female, 22–24 g) was exposed to 20 S. japonica cercariae (as described above). The mice were intraperitoneally injected with 10 mg/kg oxadiazole-2-oxides daily for 5 days, beginning either 7 or 35 days post-infection. Control mice were treated with 10 mg/kg of the carrier medium. All mice were sacrificed 42 days post-infection. The worm burden of each mouse was confirmed by counting the number of worms observed from a portal vein perfusion. The mouse livers were digested overnight with 5 % potassium hydroxyl solution at 37 °C and the eggs in the liver tissue were counted under an inverted phase contrast microscope. The worm and egg reduction rates were calculated using the following formulas: Wormreductionrate%=meannumberofadultwormspermouseincontrolgroup−meannumberofadultwormspermouseinexperimentalgroup/meannumberofadultwormspermouseincontrolgroup. Eggreductionrate%=meannumberofeggspermouseincontrolgroup−meannumberofeggspermouseinexperimentalgroup/meannumberofeggspermouseincontrolgroup.

[3] abbreviates: Schistosoma japonicum, 24 h, read-out: Killing activity 24hr.
Setting [4] is: Schistosoma japonicum, 48 h, read-out: Killing activity 48hr.
Setting [5] is: Schistosoma japonicum, 72 h, read-out: Killing activity 72hr.
Where [6] appears, read: mice, 10 mg/kg i.p. daily for 5 days from day 35 post-infection, sacrificed day 42.

A word on the IC50: it is the concentration needed to halve the response being measured. By viability is commonly meant the share of living cells, or the viability signal relative to a control. As a reminder, the mortality is the percentage killed.

Like-named read-outs stand apart in the source and are kept apart here.

In the case of `O=C(C1CCCCC1)N1CC(=O)N2CCc3ccccc3C2C1` (centres unmarked) [PZQ, praziquantel, reference compound], the IC50 at recombinant SjTGR was above 20 µM. The viability at 72 h, 80 µM in series [1] stood at 76%. Besides, the killing at 25 µM turned out to be 25% in the series with adult S. japonicum (Schistosoma japonicum, 25 μM, 24 h, read-out: Killing activity 24hr); 25% in the series on adult S. japonicum (Schistosoma japonicum, 25 μM, 48 h, read-out: Killing activity 48hr); 62.5% in the series on adult S. japonicum (Schistosoma japonicum, 25 μM, 72 h, read-out: Killing activity 72hr). Also, in the series on adult S. japonicum (Schistosoma japonicum, 25 μM, 24 h, read-out: Mortality of adult worms), the mortality at 25 µM was determined as 25 ± 7.8%. Further, the killing at 50 µM was 25% in the series with adult S. japonicum (setting [3]), 37.5% in the series on adult S. japonicum (setting [4]) and 62.5% in the series with adult S. japonicum (setting [5]). The killing at 100 µM with adult S. japonicum (setting [3]) turned out to be 37.5%; in the series on adult S. japonicum (setting [4]) it was 50%; with adult S. japonicum (setting [5]) it was 87.5%. The “Killing activity 24hr” value in the series on adult S. japonicum (10 μM, 24 h) is 25.0%D. Moreover, in the series on adult S. japonicum (10 μM, 48 h), the “Killing activity 48hr” value is given as 25.0%D. Besides, in the series on adult S. japonicum (10 μM, 72 h), the “Killing activity 72hr” value worked out at 37.5%D. The “Reduction in the female worms” value in series [2] (mice treated at adult worm stage (data not shown)) was 60.5%. Moreover, the “Number of eggs per gram of liver (Mean ± SD)” value in series [2] (setting [6]) came to 3721.5 ± 1600.6. Further, the “Number of worms (Mean ± SD)” value in series [2] (setting [6]) was 3.3 ± 1.7. In addition, the Egg reduction rate in series [2] (mice, 10 mg/kg i.p. daily for 5 days from day 35 post-infection, versus control) was 53.7 (P < 0.01^*) %. In addition, the Worm reduction rate in series [2] (mice, 10 mg/kg i.p. daily for 5 days from day 35 post-infection, versus control, 10 mg/kg) is 72.3 (P < 0.01^*) %.
